Data taken from US20250326752A1, “PIPERIDINYL-METHYL-PURINE AMINE SALTS, CRYSTALLINE FORMS, AND THEIR USE IN TREATING MEDICAL DISEASES AND CONDITIONS” (K36 Therapeutics, Inc., priority 2022, published 2025).
Where a name gives a salt, the structure may show the parent alone.

What was measured:
[1] = hygroscopicity by dynamic vapor sorption; assay type: physicochemical; conditions: transitioned from 0% to 90% relative humidity
[2] = water solubility of the crystalline form in phosphate buffer; assay type: physicochemical; conditions: for solubility: pH 6.8 (phosphate buffer; 50 mM where stated)
[3] = aqueous buffer, read-out: water solubility of (S)-1-((R)-3-amino-1-(4-((6-amino-9H-purin-9-yl)methyl)-6-(2,5-difluoro-4-methoxyphenyl)pyridin-3-yl)piperidin-3-yl)-2,2-difluoroethan-1-ol
[4] = pH 7.0 (phosphate buffer), 37° C., after 30 minutes

COc1cc(F)c(-c2cc(Cn3cnc4c(N)ncnc43)c(N3CCC[C@](N)([C@H](O)C(F)F)C3)cn2)cc1F.Cl [Example 1, (S)-1-((R)-3-amino-1-(4-((6-amino-9H-purin-9-yl)methyl)-6-(2,5-difluoro-4-methoxyphenyl)pyridin-3-yl)piperidin-3-yl)-2,2-difluoroethan-1-ol Hydrochloric Acid Salt]
increase in weight (hygroscopicity by dynamic vapor sorption) [1]: 16%
solubility [2, 3]: 220 µg/mL

COc1cc(F)c(-c2cc(Cn3cnc4c(N)ncnc43)c(N3CCC[C@](N)([C@H](O)C(F)F)C3)cn2)cc1F [Example 2, (S)-1-((R)-3-amino-1-(4-((6-amino-9H-purin-9-yl)methyl)-6-(2,5-difluoro-4-methoxyphenyl)pyridin-3-yl)piperidin-3-yl)-2,2-difluoroethan-1-ol Hydrochloric Acid Salt]
increase in weight (hygroscopicity by dynamic vapor sorption) [1]: 1.8%
solubility [2, 3]: 210 µg/mL

COc1cc(F)c(-c2cc(Cn3cnc4c(N)ncnc43)c(N3CCC[C@](N)([C@H](O)C(F)F)C3)cn2)cc1F.Cl [Example 3, (S)-1-((R)-3-amino-1-(4-((6-amino-9H-purin-9-yl)methyl)-6-(2,5-difluoro-4-methoxyphenyl)pyridin-3-yl)piperidin-3-yl)-2,2-difluoroethan-1-ol Hydrochloric Acid Salt]
solubility at 30 min ([2]; aqueous buffer, pH 7.0 (phosphate buffer), 37° C., after 30 minutes, read-out: water solubility of (S)-1-((R)-3-amino-1-(4-((6-amino-9H-purin-9-yl)methyl)-6-(2,5-difluoro-4-methoxyphenyl)pyridin-3-yl)piperidin-3-yl)-2,2-difluoroethan-1-ol): 1170 µg/mL

COc1cc(F)c(-c2cc(Cn3cnc4c(N)ncnc43)c(N3CCC[C@](N)([C@H](O)C(F)F)C3)cn2)cc1F [Example 4, (S)-1-((R)-3-amino-1-(4-((6-amino-9H-purin-9-yl)methyl)-6-(2,5-difluoro-4-methoxyphenyl)pyridin-3-yl)piperidin-3-yl)-2,2-difluoroethan-1-ol Hydrochloric Acid Salt]
water solubility of (S)-1-((R)-3-amino-1-(4-((6-amino-9H-purin-9-yl)methyl)-6-(2,5-difluoro-4-methoxyphenyl)pyridin-3-yl)piperidin-3-yl)-2,2-difluoroethan-1-ol [2, 4]: 360 µg/mL

COc1cc(F)c(-c2cc(Cn3cnc4c(N)ncnc43)c(N3CCC[C@](N)([C@H](O)C(F)F)C3)cn2)cc1F [Example 5, (S)-1-((R)-3-amino-1-(4-((6-amino-9H-purin-9-yl)methyl)-6-(2,5-difluoro-4-methoxyphenyl)pyridin-3-yl)piperidin-3-yl)-2,2-difluoroethan-1-ol Sulfuric Acid Salt]
increase in weight (hygroscopicity by dynamic vapor sorption) [1]: 6.0%

COc1cc(F)c(-c2cc(Cn3cnc4c(N)ncnc43)c(N3CCC[C@](N)([C@H](O)C(F)F)C3)cn2)cc1F [Example 6, (S)-1-((R)-3-amino-1-(4-((6-amino-9H-purin-9-yl)methyl)-6-(2,5-difluoro-4-methoxyphenyl)pyridin-3-yl)piperidin-3-yl)-2,2-difluoroethan-1-ol Sulfuric Acid Salt]
water solubility of (S)-1-((R)-3-amino-1-(4-((6-amino-9H-purin-9-yl)methyl)-6-(2,5-difluoro-4-methoxyphenyl)pyridin-3-yl)piperidin-3-yl)-2,2-difluoroethan-1-ol [2, 4]: 780 µg/mL

COc1cc(F)c(-c2cc(Cn3cnc4c(N)ncnc43)c(N3CCC[C@](N)([C@H](O)C(F)F)C3)cn2)cc1F [Example 8, (S)-1-((R)-3-amino-1-(4-((6-amino-9H-purin-9-yl)methyl)-6-(2,5-difluoro-4-methoxyphenyl)pyridin-3-yl)piperidin-3-yl)-2,2-difluoroethan-1-ol Succinic Acid Salt]
water solubility of (S)-1-((R)-3-amino-1-(4-((6-amino-9H-purin-9-yl)methyl)-6-(2,5-difluoro-4-methoxyphenyl)pyridin-3-yl)piperidin-3-yl)-2,2-difluoroethan-1-ol [2, 4]: 1670 µg/mL

COc1cc(F)c(-c2cc(Cn3cnc4c(N)ncnc43)c(N3CCC[C@](N)([C@H](O)C(F)F)C3)cn2)cc1F [Example 10, Crystalline L-Malic Acid Salt of (S)-1-((R)-3-amino-1-(4-((6-amino-9H-purin-9-yl)methyl)-6-(2,5-difluoro-4-methoxyphenyl)pyridin-3-yl)piperidin-3-yl)-2,2-difluoroethan-1-ol]
water solubility of (S)-1-((R)-3-amino-1-(4-((6-amino-9H-purin-9-yl)methyl)-6-(2,5-difluoro-4-methoxyphenyl)pyridin-3-yl)piperidin-3-yl)-2,2-difluoroethan-1-ol [2, 4]: 1530 µg/mL

COc1cc(F)c(-c2cc(Cn3cnc4c(N)ncnc43)c(N3CCC[C@](N)([C@H](O)C(F)F)C3)cn2)cc1F [Example 11, Crystalline L-Tartaric Acid Salt of (S)-1-((R)-3-amino-1-(4-((6-amino-9H-purin-9-yl)methyl)-6-(2,5-difluoro-4-methoxyphenyl)pyridin-3-yl)piperidin-3-yl)-2,2-difluoroethan-1-ol]
water solubility of (S)-1-((R)-3-amino-1-(4-((6-amino-9H-purin-9-yl)methyl)-6-(2,5-difluoro-4-methoxyphenyl)pyridin-3-yl)piperidin-3-yl)-2,2-difluoroethan-1-ol [2, 4]: 540 µg/mL
